Laboratory results taken from patent US4543256A, “(-)-10,1L Methylenedioxy-N-N-propylnoraporphine and methods employing it for inhibiting the effects of epileptic seizures and for prevention and treatment of duodenal ulcers” (Northeastern University, priority 1982, dated 1985).
Counter-ions that a name gives are not always drawn. Like-named read-outs stand apart in the source and are kept apart here.

Assays:
gastric acid output = conditions: rats given cysteamine or propionitrile; previous studies; cited from earlier work
[1] = in vivo, cited from earlier work
rats [2] = assay: Locomotor (general motor) activity, electronic activity monitor; type: in vivo, rat (male Sprague-Dawley)
Description: (§1) Male Sprague-Dawley (Charles River Labs.) rats (initially 175-200 g) were housed four per cage, with free access to food and water, under controlled lighting (on 7:00 a.m. to 7:00 p.m.), constant temperature 21°-23° C. and controlled humidity (40-50%). Aporphines were administered, as described below, freshly dissolved in 1 mM citric acid mixed with 0.9% (w/v) saline (1:4, vols.); this solvent was also used as a vehicle ("placebo") control. Haloperidol was given in the same medium; 2-diethyl aminoethyl-2,2 diphenylvalerate HCl (SKF-525A) was given in saline.
Locomotor activity was evaluated by use of a printing electronic activity monitor (EAM, Stoelting Co., Chicago, IL) within a sound-attenuated chamber, typically for 60 min., as described previously (Stewart, Campbell, Sperk and Baldessarini, 1979, Psychopharmacology 60 281-289; Campbell and Baldessarini, 1981a, Psychopharmacology 73:219-222.
(§2) In all experiments except those which evaluated the time-course of drug effects, rats were given an injection of vehicle and then allowed to rest for 15 min. to adapt to nonspecific arousal effects, prior to a second injection of test agent (or placebo) and immediate behavioral testing. Behavioral data were evaluated by Student's t-test and are always expressed as mean ±SEM.
Data are mean values ±SEM (N=4 to 8 rats per condition). Animals were pretreated with SKF-525A (40 mg/kg, i.p.) or its vehicle 30 min before MDO-NPA (in the doses noted, from 0 to 3 mg/kg, i.p.). Activity was then monitored electronically for an hour after the low doses of MDO-NPA (data in counts/hour), or rated for stereotypy every 10 min for an hour after higher doses. N.D. indicates "not determined." (*) Indicates a significant difference by t-test between control and oxidase inhibitor-pretreated rats (p<0.01).
Data are mean values ±SEM (N=3 to 6 rats per condition) for effects of seven aporphine compounds (R=substituents, keyed to the structure above). Full chemical names for all compounds are provided in Methods. Ratings are expressed as percent of the maximum possible score (100%)=18.0) of stereotypy (Placebo-injected controls yielded scores of 4.4±2.5%); and as the percent of control locomotor activity (100%=430±86 counts/hr). Data are provided for a dose of 10 mg/kg (i.p.), although doses of 1 and 5 mg/kg were also tested.

rats [3] = assay: Stereotyped behavior of rats (rating scale; score, onset and duration); type: in vivo, rat (male Sprague-Dawley); conditions: for Stereotypy Score: rated one hour, maximum 18, N=6, mean ±SEM; for Duration of Effect (stereotypy): complete when scores ≤3; for stereotypy scores: NPA 3 mg/kg i.p., N=6; for Stereotypy (percent of the maximum possible score): 100%=18.0, placebo 4.4±2.5%, N=3 to 6
Description: as §1
Stereotyped behavior was evaluated by a trained observer according to a rating scale method reported previously (Campbell and Baldessarini, 1981a). Briefly, the ratings were as follows: 0, no stereotypy, normal locomotion; 1, discontinuous sniffing, reduced locomotion; 2, continuous sniffing, only periodic exploration; 3, continuous sniffing, mouth movements, infrequent, exploratory activity, Ratings were made each 10 min. by observation for 30 sec, typically for 60 min. (maximum score=18.0/hour).
as §2
Data are mean values ±SEM for N=6 rats per group given doses of each aporphine (1mg/kg/, or approximately 3 umole/kg) by orogastric intubation (P.O.), or subcutaneous (S.C.) or intraperitoneal (I.P.) injection. Stereotypy was rated for one hour as described in Methods and duration is defined as complete when scores diminished to ≤3 (out of a maximum possible score of 18).
Data are mean values ±SEM (N=4 to 8 rats per condition). […] N.D. indicates "not determined." (*) Indicates a significant difference by t-test between control and oxidase inhibitor-pretreated rats (p<0.01).
Stereotypy was rated for 60 min as described in Methods. Data are means SEM (stereotypy scores, when 18=maximum in 1 hour) for N=6 rats per group; (*) indicates p<0.0001 by t test.
Data are mean values ±SEM (N=3 to 6 rats per condition) for effects of seven aporphine compounds (R=substituents, keyed to the structure above). Full chemical names for all compounds are provided in Methods. […] Data are provided for a dose of 10 mg/kg (i.p.), although doses of 1 and 5 mg/kg were also tested.

duodenal ulcers = assay: Cysteamine-induced duodenal ulcer in the rat; conditions: for Duodenal Ulcer Intensity (Scale: 0-3): control 1.8; for Duodenal Ulcer Incidence (Positive/Total): control 10/12
Adenylate cyclase = Adenylate cyclase stimulation (cAMP) in rat striatal homogenates; type: biochemical; conditions: 50 μM; control (no addition) 2.38 ± 0.14; p < 0.01; N=4
Description: of cAMP in rat striatal homogenates; inhibition of binding of

[4] = 50 μg/100g s.c. once daily seven days
[5] = 100 μg/100g s.c. once daily seven days
[6] = 10 mg/kg i.p.; 100%=430±86 counts/hr; N=3 to 6
[7] = SKF-525A 40 mg/kg i.p. alone (MDO-NPA dose 0)

For `CC(C)C[C@H]1C(=O)N2CCC[C@H]2[C@]2(O)O[C@](NC(=O)[C@@H]3C=C4c5cccc6[nH]c(Br)c(c56)C[C@H]4N(C)C3)(C(C)C)C(=O)N12` [bromocriptine], which “effect on output of gastric acid” value (gastric acid output) is on record?
The value was “diminished the output of gastric acid”.

What does the source list for `CCCN1CCc2cccc3c2[C@H]1Cc1ccc(O)c(O)c1-3` [NPA, N-n-Propylnorapomorphine, reference compound]?
oral bioavailability ([1]; po): poor oral bioavailability; duration of action [1]: short duration of action; minimal effective dose (rats [2]; Rattus norvegicus, ip, read-out: dose producing increases in general motor activity): > 2 µmol/kg; motor activity at lower doses (below 2 μmoles/kg) (rats [2]; i.p.): no significant effect; Stereotypy Score (rats [3]; 1 mg/kg I.P.): 17.5 ± 1.0; Duration of Effect (stereotypy) (rats [3]; 1 mg/kg I.P.): 70 ± 10 min; Stereotypy Score (rats [3]; 1 mg/kg P.O.): 0; Duration of Effect (stereotypy) (rats [3]; 1 mg/kg P.O.): 0 min; Stereotypy Score (rats [3]; 1 mg/kg S.C.): 17.5 ± 0.8; Duration of Effect (stereotypy) (rats [3]; 1 mg/kg S.C.): 72 ± 6 min; stereotypy scores (rats [3]; controls (vehicle pretreated)): 17.4±0.2; stereotypy scores (rats [3]; oxidase-inhibited (SKF-525A 40 mg/kg i.p.)): 17.0±0.3; dependence of duration of action on dose (rats [3]; i.p.): much less tendency for duration to increase with dose; duration of stereotyped behavioral effects vs other agents (rats [3]; i.p., for MDO-NPA at doses above 1 μmole/kg): about equal to, or slightly greater than that of APO; Duodenal Ulcer Intensity (Scale: 0-3) (duodenal ulcers; [4]): 1.1; Duodenal Ulcer Incidence (Positive/Total) (duodenal ulcers; [4]): 2/9; Duodenal Ulcer Intensity (Scale: 0-3) (duodenal ulcers; [5]): 0.9; Duodenal Ulcer Incidence (Positive/Total) (duodenal ulcers; [5]): 6/9; effect of a single high dose on duodenal ulcers (duodenal ulcers; single high dose): active; Adenylate cyclase stimulation (cAMP) (Adenylate cyclase): 5.67 ± 0.28 pmol/assay

For `CCCN1CCc2cccc3c2[C@H]1Cc1c([N+](=O)[O-])cc2c(c1-3)OCO2` [8-Nitro-MDO--NPA], which “Locomotion (percent of control locomotor activity)” value (rats [2]; [6]) is on record?
Its value is 74.4 ± 9.8%.

And the “Stereotypy (percent of the maximum possible score)” value (rats [3]; 10 mg/kg i.p.)?
The value was 4.4 ± 2.5%.

For `CC(C)(C)C1(O)CCN2CC3c4ccccc4CCc4cccc(c43)C2C1` (single isomer, unassigned; (+)) [(+)-butaclamol, reference compound], which “effect on the beneficial effect of NPA and MDO-NPA” value (duodenal ulcers; combined with NPA or MDO-NPA) is on record?
Its value is “reversed the beneficial effect of NPA and MDO-NPA”.

And the “effect on cysteamine-induced duodenal ulcers” value (duodenal ulcers; rats given cysteamine)?
Its value is “aggravated the experimental duodenal ulcers”.

For `CN1C[C@H](CC#N)C[C@@H]2c3cccc4[nH]c(Cl)c(c34)C[C@H]21` [lergotrile], which “effect on output of gastric acid” value (gastric acid output) is on record?
Its value is “diminished the output of gastric acid”.

Which “Locomotion (percent of control locomotor activity)” value (rats [2]; [6]) does the source give for `CCCCCC1(C)Oc2ccc3c(c2O1)-c1cccc2c1C(C3)N(CCC)CC2.Cl` (single isomer, unassigned; (-)) [Methyl-pentyl-MDO--NPA, (-) 10,11-Heptylidene-2-dioxy-N-n-propylnoraporphine-HCl] here?
Its value is 86.1 ± 22.3%.

What about the “Stereotypy (percent of the maximum possible score)” value (rats [3]; 10 mg/kg i.p.) of the same compound?
Its value is 11.1 ± 5.7%.

For `CN1CCc2cccc3c2[C@H]1Cc1ccc2c(c1-3)OCO2` [MDO-APO], which excitatory effects (rats [2]; 10 mg/kg i.p.) is on record?
Its excitatory effects is “relatively weak and inconsistent excitatory effects”.

What about the “inhibition of locomotor activity” value (rats [2]; 10 mg/kg i.p.) of the same compound?
The value was “significant effect (p 0.01 by t-test) to inhibit locomotor activity”.

What about the “Stereotypy” value (rats [3]; 10 mg/kg i.p.) of the same compound?
Its value is “weak and inconsistent stereotypy (not significant statistically)”.

What about the “behavioral effects after oral administration” value (rats [3]; 1 to 5 mg/kg oral) of the same compound?
Its value is “no significant behavioral effects”.

With `CCCC(C(=O)OCCN(CC)CC)(c1ccccc1)c1ccccc1` [SKF-525A, 2-diethyl aminoethyl-2,2 diphenylvalerate HCl, reference compound] as the compound, how does the Activity (rats [2]; [7]) read?
The Activity was 422 ± 28 counts/hour.

And the Stereotypy (rats [3]; [7])?
The Stereotypy was 0.

For `CN1CCc2cccc3c2[C@H]1Cc1ccc(O)c(O)c1-3` [APO, apomorphine, reference compound], which duration of action [1] is on record?
The duration of action was “short duration of action”.

And the minimal effective dose (rats [2]; Rattus norvegicus, ip; read-out: dose producing increases in general motor activity)?
Its minimal effective dose is > 2 µmol/kg.

What about the “motor activity at lower doses (below 2 μmoles/kg)” value (rats [2]; i.p.) of the same compound?
Its value is “no significant effect”.

What about the “Stereotypy Score” value (rats [3]; 1 mg/kg I.P.) of the same compound?
The value was 16.5 ± 2.4.

What about the “Duration of Effect (stereotypy)” value (rats [3]; 1 mg/kg I.P.) of the same compound?
Its value is 72 ± 12 min.

What about the “Stereotypy Score” value (rats [3]; 1 mg/kg P.O.) of the same compound?
Its value is 0.

And the “Duration of Effect (stereotypy)” value (rats [3]; 1 mg/kg P.O.)?
The value was 0 min.

And the “Stereotypy Score” value (rats [3]; 1 mg/kg S.C.)?
The value was 17.5 ± 0.4.

And the “Duration of Effect (stereotypy)” value (rats [3]; 1 mg/kg S.C.)?
The value was 70 ± 5 min.

What about the “dependence of duration of action on dose” value (rats [3]; i.p.) of the same compound?
Its value is “much less tendency for duration to increase with dose”.

For “(-) 10, 11-Butylidene-2-dioxy-N-n-propylnoraporphine. HCl [Methyl-ethyl MDO--NPA]”, which “Stereotypy” value (rats [3]; 10 mg/kg i.p.) is on record?
The value was “weak stereotypic activity”.

And the “duration of stereotypic activity” value (rats [3]; 10 mg/kg i.p.)?
The value was “about 60 min”.

What about the “onset of stereotypic activity delayed” value (rats [3]; 10 mg/kg i.p.) of the same compound?
Its value is “about 30 min”.

What about the “Stereotypy (percent of the maximum possible score)” value (rats [3]; 10 mg/kg i.p.) of the same compound?
Its value is 31.5 ± 1.9%.
